Values quoted from earlier work in patent US20200281890A1, “COMPOSITIONS COMPRISING CANNABIDIOL, TETRAHYDROCANNABINOL, TERPENES, AND […] USE THEREOF IN THE TREATMENT OF INSOMNIA” (CANOPY HEALTH INNOVATIONS, priority 2017, published 2020).

Legend:
CB1 receptor = CB1 receptor (Homo sapiens, UniProt P21554)
mouse = conditions: up to 80 mg/kg
[1] = test system: mice, rats, gerbils and non-human primates
CB2 receptor = CB2 receptor (Homo sapiens, UniProt P34972)
5-HT1A receptor = target: T1, 5-HT1A receptor (Homo sapiens, UniProt P08908)
T1 sequence (P08908 1-422): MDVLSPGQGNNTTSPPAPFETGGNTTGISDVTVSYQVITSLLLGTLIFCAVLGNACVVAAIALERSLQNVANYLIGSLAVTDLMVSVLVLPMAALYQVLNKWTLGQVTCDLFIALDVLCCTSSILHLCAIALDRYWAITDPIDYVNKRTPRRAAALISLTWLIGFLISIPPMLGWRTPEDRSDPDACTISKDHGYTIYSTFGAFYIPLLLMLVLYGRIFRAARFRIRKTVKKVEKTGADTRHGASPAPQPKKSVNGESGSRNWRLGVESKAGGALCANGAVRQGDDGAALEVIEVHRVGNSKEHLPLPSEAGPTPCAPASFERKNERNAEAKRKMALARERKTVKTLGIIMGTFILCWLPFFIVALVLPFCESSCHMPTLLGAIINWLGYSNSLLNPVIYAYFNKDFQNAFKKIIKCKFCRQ

Sequence of CB1 receptor (P21554 whole entry): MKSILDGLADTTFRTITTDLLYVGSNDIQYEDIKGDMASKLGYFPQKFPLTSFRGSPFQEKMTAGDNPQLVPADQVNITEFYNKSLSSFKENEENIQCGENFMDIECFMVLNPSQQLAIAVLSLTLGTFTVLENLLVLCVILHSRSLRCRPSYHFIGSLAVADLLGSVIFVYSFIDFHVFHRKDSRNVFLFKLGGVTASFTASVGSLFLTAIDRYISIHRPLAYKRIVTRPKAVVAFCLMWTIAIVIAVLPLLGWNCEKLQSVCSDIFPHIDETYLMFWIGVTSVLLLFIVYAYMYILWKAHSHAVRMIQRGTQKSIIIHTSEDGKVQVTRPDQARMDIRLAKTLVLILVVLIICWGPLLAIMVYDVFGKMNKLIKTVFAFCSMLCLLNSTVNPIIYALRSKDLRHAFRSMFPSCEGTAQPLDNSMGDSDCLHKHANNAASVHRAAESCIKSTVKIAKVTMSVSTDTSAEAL
Sequence of CB2 receptor (P34972 whole entry): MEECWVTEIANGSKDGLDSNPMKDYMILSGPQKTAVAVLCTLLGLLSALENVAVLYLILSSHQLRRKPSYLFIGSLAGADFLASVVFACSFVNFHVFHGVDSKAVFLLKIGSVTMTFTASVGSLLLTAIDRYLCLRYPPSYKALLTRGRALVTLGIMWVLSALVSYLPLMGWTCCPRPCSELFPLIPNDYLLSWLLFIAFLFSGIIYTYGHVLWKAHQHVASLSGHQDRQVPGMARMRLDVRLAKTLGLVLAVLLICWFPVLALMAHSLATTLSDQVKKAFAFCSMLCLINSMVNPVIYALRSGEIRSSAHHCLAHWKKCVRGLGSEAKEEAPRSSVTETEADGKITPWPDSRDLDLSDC

CCCCCc1cc(O)c(C/C=C(\C)CCC=C(C)C)c(O)c1 [CBG, cannabigerol]
CB1 receptor affinity and function (CB1 receptor): low affinity CB1 receptor antagonist | effect in mouse tetrad test (locomotor suppression, catalepsy, hypothermia and analgesia) (mouse): without effect | THC-like activity [1]: does not trigger THC-like activity | a2-adrenergic receptor affinity and function (a2-adrenergic receptor): high affinity a2-adrenergic receptor agonist | CB2 receptor binding and function (CB2 receptor): antagonist | 5-HT1A receptor affinity and function (5-HT1A receptor): moderate affinity 5-HT1A receptor antagonist

CCCCCc1cc(O)c2c(c1)OC(C)(C)c1ccc(C)cc1-2 [CBN, cannabinol]
function at the CB1 receptors (CB1 receptor): partial agonist | affinity to CB2 receptors relative to CB1 (CB2 receptor; lower affinities in comparison to THC): higher affinity to CB2 receptors
